{
  "source": "patent US20150111764A1",
  "about": "“POLYMERIZED MICROARRAYS” (New York University, priority 2013, published 2015)",
  "key": {"[1]": {"target": "T1, Rhodamine-labeled PNA (galactose-specific lectin) (Arachis hypogaea, UniProt P02872)", "T1 sequence (P02872 24-273)": "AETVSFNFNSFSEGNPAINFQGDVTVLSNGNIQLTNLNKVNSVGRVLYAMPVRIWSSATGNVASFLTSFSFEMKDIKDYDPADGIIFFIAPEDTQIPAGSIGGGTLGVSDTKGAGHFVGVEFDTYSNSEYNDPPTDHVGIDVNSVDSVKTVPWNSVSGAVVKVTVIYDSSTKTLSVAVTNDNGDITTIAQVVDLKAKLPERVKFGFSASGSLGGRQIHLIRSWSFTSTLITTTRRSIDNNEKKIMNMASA", "experiment": "Control: glycan arrays exposed to Rhodamine-labeled PNA, fluorescence", "format": "binding", "settings": "PNA 1.5×10^−5 M, 5 h, washed with phosphate buffer/Tween 20", "excerpt": "Control Experiments. […] This experiment supports the conclusion that fluorescence in the Cy3-labelled ConA exposed arrays of compound 3 and compound 4 arise from ConA-glucose binding (FIG. 27)."}, "Concanavalin A (ConA)": {"target": "Concanavalin A (ConA) (Canavalia ensiformis, UniProt P02866)", "from_the_text": "Fluorescence intensity profiles of the array were obtained from a Nikon Eclipse Ti fluorescence microscope (λex=532-587 nm, λobs=608-683 nm), and extracted by NIS-elements software (Nikon Instruments, Inc.). Exposure times ranged from 1-4 s, depending on the brightness of the arrays. To compare data taken with different exposure times, the normalized fluorescence was obtained by dividing the maximum fluorescence by the background fluorescence. It is possible that the ratio of signal-to-background can vary with exposure time, so to test the effect of exposure time on the normalized fluorescence of features on the microarray, fluorescence images of a surface patterned with compound 4 and bound to Cy3-modified ConA were taken at different exposure time.\nPreparation of Carbohydrate arrays by PPL-induced Thiol-ene and Thiol-acrylate reaction. To prepare the pen arrays for inking, they were exposed to O2 plasma (Harrick PDC-001, 30 s, medium power) to render the surfaces of the pen-arrays hydrophilic. […]\nArrays of compound 3 and compound 4 were prepared by the thiol-methacrylate and thiol-ene reactions, respectively, as well as α-mannosides immobilized by the thiol-ene and Cuaac reaction. Binding of Concanavalin A (ConA) to these arrays was measured by fluorescence microscopy to determine how the mutivalency of the resulting glycans affects binding. […]"}},
  "data": [
    {"substance": "α-glucomethacrylate [compound 3]", "values": [
      {"measurement": "fluorescence after exposure to Rhodamine-labeled PNA", "setting": "[1]", "value": "no fluorescence was observed"},
      {"measurement": "fluorescence after exposure to Rhodamine-labeled PNA", "setting": "[1]; listed as Compound 3", "value": "no visible fluorescence was observed"},
      {"measurement": "lowest ConA concentration detected by the array", "setting": "Concanavalin A (ConA); ConA concentration varied systematically, thiol-acrylate brush polymer arrays", "value": 0.2, "unit": "µM"},
      {"measurement": "normalized fluorescence of array after ConA binding", "setting": "Concanavalin A (ConA); Cy3-labelled ConA 0.5 mg/mL, 4 h at 4° C., maximum fluorescence divided by background fluorescence", "value": "7.1±0.2"}
    ]}
  ]
}
